Earlier results in patent US20180353540A1, “Pharmaceutical composition for treating leukemia and preparation method thereof” (Yi Fan Pharmaceutical Academy (Beijing) Co., Ltd., priority 2015, published 2018).

Assays:
[1] = test system: ME180 cells; settings: non-toxic dose 0.5 μg/ml
[2] = test system: HL-6 cells; settings: non-toxic dose 0.5 μg/ml
[3] = test system: SGC7901 human gastric adenocarcinoma cells

For Cc1coc2c1C(=O)C(=O)c1c-2ccc2c1CCCC2(C)C [tanshinone IIA], the “expression of c-myc and H-ras oncogenes (RNA dot blot hybridization)” value ([1]; ME180 cell line) is listed as “significantly reduced”, the “induced differentiation effect on ME180 cells” value [1] is listed as “better induced differentiation effects” and the “effect on HL-6 cells (differentiation, maturation, apoptosis)” value [2] is listed as “can induce differentiation and maturation of tumor cells, accompanied by apoptosis”. For the same molecule, the “growth of SGC7901 human gastric adenocarcinoma cells in vitro” value [3] was “significantly inhibits the growth”.

In the case of CC1=C(/C=C/C(C)=C/C=C/C(C)=C/C(=O)O)C(C)(C)CCC1 [ATRA, all-trans retinoic acid], the “induced differentiation effect on ME180 cells” value [1] is given as “better induced differentiation effects”.
